Patent US20250099415A1, “Methods for Inhibiting the Progression of Oxidative Retinal Disease” (BioJiva LLC, priority 2021, published 2025)

Tested on: macular degeneration patients
Experiment: Clinical study of geographic atrophy progression in macular degeneration patients, treated versus placebo cohort
Type: in vivo, human
Method: This example illustrates the reduction in the rate of macular degeneration progression in a cohort of patients treated with deuterated docosahexaenoic acid ethyl ester similar to that of Example 1, as compared to a cohort of placebo patients. Specifically, the treated cohort […]. The patients are maintained on this dosing regimen throughout the clinical study. Periodic measurements of further geographic atrophy development are obtained.
Dosing is continued for 6 or 12, or 18 or 24 months. At that time, the average extent of geographic atrophy progression is measured for each cohort. The efficacy of the treatment protocol is evaluated by comparing the extent of geographic atrophy progression in a treated population against a placebo population. […]
Alternatively, the rate of disease progression for an individual patient can be assessed by the following: • a) determine the rate of disease progression for said individual patient by measuring the extent of geographic atrophy in the patient's retina at the start of therapy and at 6, 12, 18 or 24 months post start of therapy and assigning a […] value “D” to that differential; • b) determine the average rate of disease progression for a cohort of patients treated with placebo (safflower oil) by measuring the extent of geographic atrophy in each of the patient's retina at the start of therapy and at 6, 12, 18 or 24 months post start of therapy, determining the difference between the extent of atrophy at the start of therapy and at the later time point, and then obtaining an average for that differential and assigning a second value designated as “E” to that average differential; • c) calculating the difference between D and E and assign “F” to that value (e.g, E−D=F); • d) assign a positive value to “F” if E is greater than D; • e) assign a negative value to “F” if E is less than D; and • f) divide F by E and multiply by 100 [(F/E)×100]. […]

[1] = 6, 12, 18 or 24 months post start of therapy, placebo safflower oil

Deuterated Docosahexaenoic Acid Ethyl Ester
reduction in the rate of disease progression (extent of geographic atrophy progression, treated population against placebo population) (250 mg/day, dosing for 6 or 12, or 18 or 24 months, versus safflower oil placebo cohort): statistically significant reduction in the rate of disease progression
percent reduction in geographic atrophy, individual treated patient vs placebo cohort [(F/E)×100] [1]: positive percent reduction in geographic atrophy that is statistically significant
percent reduction in geographic atrophy, treated cohort vs placebo cohort [(C/B)×100] [1]: positive percent reduction in geographic atrophy that is statistically significant
